Tests used:
Hepatitis B Virus (HBV) [1] = assay: Serum HBV DNA levels in pHBV model mice (qPCR); format: in vivo; details: single s.c. injection day 1, Example 7
Description: (§1) Six to eight-week-old female NOD.CB17-Prkdscid/NcrCrl (NOD-SCID) mice were transiently transfected in vivo with MC-HBV1.3 by hydrodynamic tail vein injection (Yang P L et al. “Hydrodynamic injection of viral DNA: a mouse model of acute hepatitis B virus infection,” PNAS USA 2002 Vol. 99: p. 13825-13830), administered 30 to 45 days prior to administration of an HBV RNAi agent or control. MC-HBV1.3 is a plasmid-derived minicircle that contains the same terminally redundant human hepatitis B virus sequence HBV1.3 as in plasmid pHBV1.3 and in the HBV1.3.32 transgenic mice (GenBank accession #V01460) (Guidotti L G et al., “High-level hepatitis B virus replication in transgenic mice,” J Virol 1995 Vol. 69, p 6158-6169.). 5 or 10 μg MC-HBV1.3 in Ringer's Solution in a total volume of 10% of the animal's body weight was injected into mice via tail vein to create pHBV model of chronic HBV infection. The solution was injected through a 27-gauge needle in 5-7 seconds as previously described (Zhang G et al., “High levels of foreign gene expression in hepatocytes after tail vein injection of naked plasmid DNA.” Human Gene Therapy 1999 Vol. 10, p 1735-1737.). At pre-dose (either day 1 pre-dose, day −1, or day −2), Hepatitis B surface antigen (HBsAg) HBsAg expression levels in serum were measured by ELISA and the mice were grouped according to average HBsAg expression levels.
(§2) HBV expression levels were normalized to pre-administration expression levels and to control mice injected with phosphate buffered saline (“PBS”).
Equal volumes of serum from mice in a group or subgroup were pooled to a final volume of 100 μL. DNA was isolated from serum samples using the QIAamp MinElute Virus Spin Kit (Qiagen, Valencia, Calif.) following the manufacturer's instructions. Sterile 0.9% saline was added to each sample to a final volume of 200 μL. Serum samples were added to tubes containing buffer and protease. Carrier RNA was added to aid in the isolation of small amounts of DNA. […] After incubating 15 min at 56° C., nucleic acids were precipitated from the lysates with ethanol and the entire solution applied to a column. After washing, the samples were eluted into a volume of 50 μL Buffer AVE.
The number of copies of HBV genomes in DNA isolated from the pHBV mouse model serum was determined by qPCR. Plasmid pSEAP-HBV353-777, encoding a short segment of the HBV genome within the S gene (bases 353-777 of GenBank accession #V01460), was used to create a six log standard curve. Samples with recovery of DNA below 2 standard deviations from the average, based on detection of pHCR/UbC-SEAP were omitted. TaqMan chemistry-based primers and probes with fluor/ZEN/IBFQ are utilized.
qPCR assays were performed on a 7500 Fast or StepOne Plus Real-Time PCR system (Life Technologies). For evaluation of HBV DNA in serum, DNA was isolated from singlet or duplicate purification steps from pooled group serum samples. Quantitations of HBV DNA and recovery control plasmid were determined by qPCR reactions performed in triplicate. The probes to quantitate HBV and pHCR/UbC-SEAP were included in each reaction.

Hepatitis B Virus (HBV) [2] = assay: Serum HBeAg levels in pHBV model mice (ELISA); format: in vivo; design: key to Average HBeAg levels normalized to pre-treatment and PBS control: ratio to pre-treatment level, divided by PBS control ratio; details: for Average HBeAg fold knockdown normalized to pre-treatment and PBS control / Average HBeAg levels normalized to pre-treatment and PBS control: single s.c. injection day 1, Example 7; for Average HBeAg levels normalized to pre-treatment and PBS control: pooled serum
Description: as §1, §2
HBeAg analysis was performed with the HBeAg enzyme linked immunosorbent assay (ELISA) as described by the manufacturer (DiaSorin) using serum diluted 4- to 20-fold in 5% nonfat dry milk. The amount of antigen was determined in the linear range of the assay and quantitated against HBeAg protein standards (Fitzgerald Industries International, catalog #30-AH18, Acton, Mass.).
HBeAg expression for each animal was normalized to the control group of mice injected with PBS in order to account for the non-treatment related decline in expression of MC-HBV1.3. For evaluation of HBeAg in serum, HBeAg is analyzed from pooled group or subgroup serum samples. First, the HBeAg level for each pooled group or subgroup was divided by the pre-treatment level of expression in the same group or subgroup in order to determine the ratio of expression “normalized to pre-treatment”. Expression at a specific time point was then normalized to the control group by dividing the “normalized to pre-treatment” ratio for a group or subgroup by the average “normalized to pre-treatment” ratio of all samples from the normal PBS control group.

## AD04982: HBV RNAi agent duplex AM06464-AS/AM06150-SS (antisense UACCAAUUUAUGCCUACAGCC; sense GGCUGUAGGCAUAAAUUGGUA; chemistry not fully specified)
Hepatitis B Virus (HBV) [1]; Day 8, 1.0 mg/kg
  Average Serum HBV DNA levels normalized to pre-treatment and PBS control: 0.358 ± 0.207
Hepatitis B Virus (HBV) [1]; Day 8, 2.0 mg/kg
  Average Serum HBV DNA levels normalized to pre-treatment and PBS control: 0.516 ± 0.163
Hepatitis B Virus (HBV) [1]; Day 15, 1.0 mg/kg
  Average Serum HBV DNA levels normalized to pre-treatment and PBS control: 0.428 ± 0.073
Hepatitis B Virus (HBV) [1]; Day 15, 2.0 mg/kg
  Average Serum HBV DNA levels normalized to pre-treatment and PBS control: 0.523 ± 0.264
Hepatitis B Virus (HBV) [1]; Day 22, 1.0 mg/kg
  Average Serum HBV DNA levels normalized to pre-treatment and PBS control: 0.433 ± 0.220
Hepatitis B Virus (HBV) [1]; Day 22, 2.0 mg/kg
  Average Serum HBV DNA levels normalized to pre-treatment and PBS control: 0.244 ± 0.123
Hepatitis B Virus (HBV) [1]; Day 29, 1.0 mg/kg
  Average Serum HBV DNA levels normalized to pre-treatment and PBS control: 0.474 ± 0.090
Hepatitis B Virus (HBV) [1]; Day 29, 2.0 mg/kg
  Average Serum HBV DNA levels normalized to pre-treatment and PBS control: 0.241 ± 0.085
Hepatitis B Virus (HBV) [1]; Day 36, 1.0 mg/kg
  Average Serum HBV DNA levels normalized to pre-treatment and PBS control: 0.509 ± 0.163
Hepatitis B Virus (HBV) [1]; Day 36, 2.0 mg/kg
  Average Serum HBV DNA levels normalized to pre-treatment and PBS control: 0.543 ± 0.079
Hepatitis B Virus (HBV) [2]; Day 8, 1.0 mg/kg
  Average HBeAg fold knockdown normalized to pre-treatment and PBS control: 2.1 Fold KD
  Average HBeAg levels normalized to pre-treatment and PBS control: 0.471
Hepatitis B Virus (HBV) [2]; Day 8, 2.0 mg/kg
  Average HBeAg fold knockdown normalized to pre-treatment and PBS control: 3.0 Fold KD
  Average HBeAg levels normalized to pre-treatment and PBS control: 0.335
Hepatitis B Virus (HBV) [2]; Day 15, 1.0 mg/kg
  Average HBeAg fold knockdown normalized to pre-treatment and PBS control: 2.4 Fold KD
  Average HBeAg levels normalized to pre-treatment and PBS control: 0.424
Hepatitis B Virus (HBV) [2]; Day 15, 2.0 mg/kg
  Average HBeAg fold knockdown normalized to pre-treatment and PBS control: 3.2 Fold KD
  Average HBeAg levels normalized to pre-treatment and PBS control: 0.310
Hepatitis B Virus (HBV) [2]; Day 22, 1.0 mg/kg
  Average HBeAg fold knockdown normalized to pre-treatment and PBS control: 1.8 Fold KD
  Average HBeAg levels normalized to pre-treatment and PBS control: 0.562
Hepatitis B Virus (HBV) [2]; Day 22, 2.0 mg/kg
  Average HBeAg fold knockdown normalized to pre-treatment and PBS control: 2.4 Fold KD
  Average HBeAg levels normalized to pre-treatment and PBS control: 0.411
Hepatitis B Virus (HBV) [2]; Day 29, 1.0 mg/kg
  Average HBeAg fold knockdown normalized to pre-treatment and PBS control: 2.0 Fold KD
  Average HBeAg levels normalized to pre-treatment and PBS control: 0.513
Hepatitis B Virus (HBV) [2]; Day 29, 2.0 mg/kg
  Average HBeAg fold knockdown normalized to pre-treatment and PBS control: 2.3 Fold KD
  Average HBeAg levels normalized to pre-treatment and PBS control: 0.442
Hepatitis B Virus (HBV) [2]; Day 36, 1.0 mg/kg
  Average HBeAg fold knockdown normalized to pre-treatment and PBS control: 1.4 Fold KD
  Average HBeAg levels normalized to pre-treatment and PBS control: 0.705
Hepatitis B Virus (HBV) [2]; Day 36, 2.0 mg/kg
  Average HBeAg fold knockdown normalized to pre-treatment and PBS control: 2.0 Fold KD
  Average HBeAg levels normalized to pre-treatment and PBS control: 0.500
Hepatitis B Virus (HBV) [2]; Example 7 Group D, 2.0 mg/kg AD04982, day 15
  fold decrease of HBeAg: 3.2 fold

From patent US20190255091A1, “RNAi AGENTS FOR [sequence] B VIRUS INFECTION” (priority 2016, published 2019)
